# Measured values reported in patent US20080318781A1, “Method of Controlling Weeds” (priority 2005, published 2008).
# How the values were obtained:
# Assay type in all cases: in vivo
# [1] = tested on: glyphosate resistant soybeans; assay: Example 2 field test, pre-plant burn-down treatment followed by in-crop glyphosate: phytotoxicity in crop; details: 86 days after first treatment; pre-plant burn-down (glyphosate 870 g/ha or I.7 50 g/ha), followed by glyphosate 870 g/ha at 53 DAT; crop planted at 8 DAT
# Description: (§1) The phenyluracils I and/or the other active ingredients according to the present invention were formulated in a suitable way, either separately or in mixture, e.g. as emulsifiable concentrates (EC), soluble concentrates (SL), suspo-emulsions (SE), suspension concentrates (SC) or water-dispersible granules (WG). The formulation(s) were suspended or emulsified in water as a distribution medium immediately prior to spraying. Afterwards, the aqueous mixture was evenly sprayed on the test plots by means of finely distributing nozzles.
# (§2) The test plots were of uniform size (typically between 14 and 37 square meters, each) and the distribution of treated and untreated plots was organized according to a randomised bloc design. Crops were sown in rows at a season which was typical for the region and the crop according to usual farm practice. Weeds were not sown but germinated according to the natural infestation.
# (§3) For pre-plant and pre-plant burn-down treatments, the plots were treated before the crop was planted, typically 7 to 28 days prior to planting. For pre-emergence treatments, the plots were treated at planting (plus or minus two days) but before emergence. For post-emergence or in-crop treatments, the plots were treated after the emergence of the weed or crop, typically 20 to 50 days after planting. […]
# [2] = tested on: Common lambsquarters (CHEAL); assay: Example 3 field test, pre-plant treatment followed by in-crop glyphosate: weed control; details: 57 days after first treatment; pre-plant (glyphosate 870; I.7 25; I.7 + glyphosate 25 + 870; I.7 + imazethapyr 25 + 70 g/ha), followed by glyphosate 870 g/ha at 42 DAT
# Description: as §1, §2, §3
# Giant ragweed (AMBTR) [3] = assay: as above; details: 57 days after first treatment; pre-plant (glyphosate 870; I.7 25; I.7 + glyphosate 25 + 870; I.7 + imazethapyr 25 + 70 g/ha), followed by glyphosate 870 g/ha at 42 DAT
# Description: as §1, §2, §3
# Velvetleaf (ABUTH) [4] = assay: Example 1 field test, pre-plant treatment: weed control; details: 44 days after treatment, use rate g/ha: glyphosate 870, I.7 25, I.7 + glyphosate 25 + 870, I.7 + imazethapyr 25 + 70
# Description: as §1, §2, §3
# Giant ragweed (AMBTR) [5] = assay: as above; details: 44 days after treatment, use rate g/ha: glyphosate 870, I.7 25, I.7 + glyphosate 25 + 870, I.7 + imazethapyr 25 + 70
# Description: as §1, §2, §3
# [6] = tested on: Common lambsquarters (CHEAL); assay: Example 2 field test, pre-plant burn-down treatment followed by in-crop glyphosate: weed control; details: 86 days after first treatment; pre-plant burn-down (glyphosate 870 g/ha or I.7 50 g/ha), followed by glyphosate 870 g/ha at 53 DAT
# Description: as §1, §2
# (§4) For pre-plant and pre-plant burn-down treatments, the plots were treated before the crop was planted, typically 7 to 28 days prior to planting. For pre-emergence treatments, the plots were treated at planting (plus or minus two days) but before emergence. For post-emergence or in-crop treatments, the plots were treated after the emergence of the weed or crop, typically 20 to 50 days after planting.
# (§5) The evaluation of the damage caused by the phenyluracils I and/or the other active ingredients according to the present invention was carried out using a scale from 0 to 100%, compared to the untreated control plots. Here, 0 means no damage and 100 means complete destruction of the plants of a respective weed or crop species.
# (§6) Weed control in glyphosate resistant soybeans 86 days after the first treatment; pre-plant burn-down treatment followed by an in-crop glyphosate treatment at 53 DAT; field test.
# (§7) In this example, glyphosate (potassium salt) was formulated as a 540 g/l SL and phenyluracil I.7 as a 120 g/l EC. […]
# Velvetleaf (ABUTH) [7] = assay: as above; details: 86 days after first treatment; pre-plant burn-down (glyphosate 870 g/ha or I.7 50 g/ha), followed by glyphosate 870 g/ha at 53 DAT
# Description: as §1, §2, §4, §5, §6, §7
# Giant ragweed (AMBTR) [8] = assay: as above; details: 86 days after first treatment; pre-plant burn-down (glyphosate 870 g/ha or I.7 50 g/ha), followed by glyphosate 870 g/ha at 53 DAT
# Description: as §1, §2, §4, §5, §6, §7
# [9] = tested on: glyphosate resistant soybeans; assay: Example 1 field test, pre-plant treatment: phytotoxicity in crop; details: 44 days after treatment, crop planted at 15 DAT, use rate g/ha: glyphosate 870, I.7 25, I.7 + glyphosate 25 + 870, I.7 + imazethapyr 25 + 70, 0 = no damage, 100 = complete destruction
# Description: as §1, §2, §3
# [10] = tested on: glyphosate resistant soybeans; assay: Example 3 field test, pre-plant treatment followed by in-crop glyphosate: phytotoxicity in crop; details: 57 days after first treatment; pre-plant (glyphosate 870; I.7 25; I.7 + glyphosate 25 + 870; I.7 + imazethapyr 25 + 70 g/ha), followed by glyphosate 870 g/ha at 42 DAT; crop planted at 12 DAT
# Description: as §1, §2, §3
structure (smiles),measurement,setting,value
"O=C(O)CNCP(=O)(O)O [Glyphosate, glyphosate]",Phytotoxicity in glyphosate resistant soybeans (% damage),[1],0%
same,Weed control (% control) Common lambsquarters (CHEAL),[2],83%
same,Weed control (% control) Giant ragweed (AMBTR),Giant ragweed (AMBTR) [3],72%
same,Weed control (% control) Velvetleaf (ABUTH),Velvetleaf (ABUTH) [4],17%
same,Weed control (% control) Giant ragweed (AMBTR),Giant ragweed (AMBTR) [5],86%
same,Weed control (% control) Common lambsquarters (CHEAL),[6],89%
same,Weed control (% control) Velvetleaf (ABUTH),Velvetleaf (ABUTH) [7],91%
same,Weed control (% control) Giant ragweed (AMBTR),Giant ragweed (AMBTR) [8],86%
same,Phytotoxicity in glyphosate resistant soybeans (% damage),[9],0%
same,Phytotoxicity in glyphosate resistant soybeans (% damage),[10],0%
